Experimental findings from patent US10669235B2, “Indole derivatives and their use as protein kinase inhibitors” (RESPIVERT LIMITED, priority 2016, dated 2020) are described below.

The target of series [1] is T1, PDGFRβ (Homo sapiens (Human), UniProt P09619). Kind of series: PDGF-BB induced phosphorylation of PDGFRβ in fibroblasts (MRC5, HTRF). Type of series: cell-based. Particulars: MRC5 cells, PDGFBB stimulation; read-out: PDGFBB-induced PDGFRβ phosphorylation in MRC5 cells (IC50).
The nature of the next series: PAMPA permeability assay. Particulars: pH 7, PAMPA; for Papp at 5 h, 10 µM: pH 7, 10 μM. Type of series: in vitro ADME.
Series [2] deals with T1, PDGFRβ. Kind of series: PDGFRβ enzyme inhibition (ADP-Glo assay). Type of series: biochemical. (In ADP-Glo the light output rises with the ADP produced.)
For a further series, the system named is MRC5 cells. Briefly: Cell viability assay in MRC5 cells (MTT).
Series [3] in a line: Pharmacokinetic measurements in rats (i.v., i.t., oral). Type of series: in vivo. Particulars: rat; for concentration at 0.1 h / concentration at 1.5 h / concentration at 6 h / concentration at 24 h: male, CD, lung; for concentration at 0.1 h: read-out: lung concentration (nM) at time 0.1 h; for concentration at 1.5 h: read-out: lung concentration (nM) at time 1.5 h; for concentration at 6 h: read-out: lung concentration (nM) at time 6 h; for concentration at 24 h: read-out: lung concentration (nM) at time 24 h.

Where [4] appears, read: mean, n = 2 (nintedanib n = 34).
Setting [5] is: i.t. dose 0.1 (nintedanib 0.42).
[6] abbreviates: i.v. dose 0.1 (nintedanib 0.42).

Where a name gives a salt, the structure may show the parent alone. Read-outs that look alike come from different tables or passages of the source.

T1 sequence (P09619 33-1106): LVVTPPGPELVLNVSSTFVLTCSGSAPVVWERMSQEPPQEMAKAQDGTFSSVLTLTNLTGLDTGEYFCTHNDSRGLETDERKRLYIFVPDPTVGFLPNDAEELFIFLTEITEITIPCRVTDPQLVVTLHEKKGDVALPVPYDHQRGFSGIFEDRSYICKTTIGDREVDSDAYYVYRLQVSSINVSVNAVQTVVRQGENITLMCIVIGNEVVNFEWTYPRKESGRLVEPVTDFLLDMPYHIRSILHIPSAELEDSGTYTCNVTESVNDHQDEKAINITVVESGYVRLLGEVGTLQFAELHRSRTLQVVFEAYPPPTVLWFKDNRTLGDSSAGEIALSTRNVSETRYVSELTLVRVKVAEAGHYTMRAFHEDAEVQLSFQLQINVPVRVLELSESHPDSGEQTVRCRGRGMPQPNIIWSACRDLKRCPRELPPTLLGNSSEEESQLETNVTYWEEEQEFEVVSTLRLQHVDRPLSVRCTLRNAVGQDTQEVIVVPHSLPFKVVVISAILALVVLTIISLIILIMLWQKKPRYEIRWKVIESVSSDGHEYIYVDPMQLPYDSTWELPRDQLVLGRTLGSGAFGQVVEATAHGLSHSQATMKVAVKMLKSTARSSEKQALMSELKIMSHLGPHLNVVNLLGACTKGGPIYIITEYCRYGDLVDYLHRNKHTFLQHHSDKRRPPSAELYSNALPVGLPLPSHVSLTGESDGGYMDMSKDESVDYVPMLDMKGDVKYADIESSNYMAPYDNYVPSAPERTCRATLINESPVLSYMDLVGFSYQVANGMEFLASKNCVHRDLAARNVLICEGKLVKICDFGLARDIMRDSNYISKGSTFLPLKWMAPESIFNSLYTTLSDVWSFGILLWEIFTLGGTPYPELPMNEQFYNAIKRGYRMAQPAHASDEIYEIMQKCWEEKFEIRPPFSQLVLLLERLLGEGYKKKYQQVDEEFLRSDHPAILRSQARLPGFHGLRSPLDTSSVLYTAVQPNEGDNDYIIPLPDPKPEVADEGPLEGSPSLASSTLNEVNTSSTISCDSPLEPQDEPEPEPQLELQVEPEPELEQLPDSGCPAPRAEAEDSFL

A word on the IC50: it is the concentration that gives 50% inhibition. For orientation: Papp means a coefficient for how fast a substance crosses the barrier. As a reminder, the Ki is a dissociation constant, usually derived from enzyme kinetics or from competition with a known ligand. Consider `COC(=O)c1cc2c(cc1C)/C(=C(/Nc1ccc(C(=O)N3CCC4(CC3)C(=O)NCCCN4C)cc1)c1ccccc1)C(=O)N2` [Example 43, (Z)-Methyl-5-methyl-3-(((4-(7-methyl-12-oxo-3,7,11-triazaspiro[5.6]dodecane-3-carbonyl)phenyl)amino)(phenyl)methylene)-2-oxoindoline-6-carboxylate], for which the IC50 at PDGFRβ [1] was 0.00231 µM. In “PAMPA permeability assay”, this compound registered a Papp at 5 h, 10 µM of 8.65 nm/s. Further, the inhibition constant Ki on PDGFRβ [2] (setting [4]) was found to be 0.0252 µM. Also, in the series with MRC5 cells, the “Cell viability at 300 nM (%)” value came to 58.8% and the “Cell viability at 1000 nM (%)” value is reported as 6.4%.

As for `COC(=O)c1cc2c(cc1C)/C(=C(/Nc1ccc(C(=O)N[C@H]3CCCN(C)C3)cc1)c1ccccc1)C(=O)N2` [Example 27, (S,Z)-Methyl 5-methyl-3-(((4-((1-methylpiperidin-3-yl)carbamoyl)phenyl)amino)(phenyl)methylene)-2-oxoindoline-6-carboxylate, 0.5 formate], on PDGFRβ [1], the IC50 was 0.043 µM. In the series “PAMPA permeability assay”, this compound registered a recovery at 5 hr, 10 μM of 54.3% and a Papp at 5 h, 10 µM of 168 nm/s. The compound further came in with an inhibition constant Ki at PDGFRβ [2] (setting [4]) of 0.018 µM. For the same compound, in the series with MRC5 cells, the “Cell viability at 100 nM (%)” value is given as 106.5%, the “Cell viability at 300 nM (%)” value was found to be 112.6% and the “Cell viability at 1000 nM (%)” value is given as 82.9%.

`COC(=O)c1cc2c(cc1C)/C(=C(/Nc1ccc(C(=O)N3CC[C@@H](CN(C)C)[C@H](O)C3)cc1)c1ccccc1)C(=O)N2` [Example 33, (Z)-Methyl 3-(((4-((3S,4S)-4-((dimethylamino)methyl)-3-hydroxypiperidine-1-carbonyl)phenyl)amino)(phenyl)methylene)-5-methyl-2-oxoindoline-6-carboxylate]: on PDGFRβ [1], the IC50 amounted to 0.00232 µM. In the series “PAMPA permeability assay”, this compound showed a recovery at 5 hr, 10 μM of 69.1% and an apparent permeability coefficient (Papp) at 5 h, 10 µM of 0.269 nm/s. For the same compound, the inhibitory constant (Ki) at PDGFRβ [2] (setting [4]) came out at 0.00682 µM. In addition, in the series on MRC5 cells, the “Cell viability at 100 nM (%)” value was found to be 86.6%, the “Cell viability at 300 nM (%)” value is 63.1% and the “Cell viability at 1000 nM (%)” value is listed as 19.8%.

`COC(=O)c1cc2c(cc1C)/C(=C(/Nc1ccc(C(=O)NCCCN3CCOCC3)cc1)c1ccccc1)C(=O)N2` [Example 29, (Z)-Methyl 5-methyl-3-(((4-((3-morpholinopropyl)carbamoyl)phenyl)amino)(phenyl)methylene)-2-oxoindoline-6-carboxylate]: the IC50 at PDGFRβ [1] was determined as 0.00365 µM. For the same compound, in “PAMPA permeability assay”, the recovery at 5 hr, 10 μM was determined as 72.1% and the Papp at 5 h, 10 µM is 3.73 nm/s. Moreover, the inhibitory constant (Ki) on PDGFRβ [2] (setting [4]) was determined as 0.0112 µM. In the series with MRC5 cells, the “Cell viability at 100 nM (%)” value was determined as 116.9%, the “Cell viability at 300 nM (%)” value turned out to be 72.5% and the “Cell viability at 1000 nM (%)” value amounted to 60.8%.

`COC(=O)c1cc2c(cc1C)/C(=C(/Nc1ccc(C(=O)NCCN3CCN(C)CC3)cc1)c1ccccc1)C(=O)N2` [Example 4, (Z)-Methyl 5-methyl-3-(((4-((2-(4-methylpiperazin-1-yl)ethyl)carbamoyl)phenyl)amino)(phenyl)methylene)-2-oxoindoline-6-carboxylate]: the IC50 on PDGFRβ [1] was 0.014 µM. In “PAMPA permeability assay”, this compound yielded a recovery at 5 hr, 10 μM of 76% and a Papp at 5 h, 10 µM of 0.216 nm/s. In series [3] (iv), the concentration at 0.1 h was 959 nM, the concentration at 1.5 h was 641 nM, the concentration at 6 h stood at 156 nM and the concentration at 24 h was found to be 88 nM. Further, in series [3] (other: intra-tracheal), the concentration at 0.1 h was found to be 3490 nM, the concentration at 1.5 h stood at 1210 nM, the concentration at 6 h was determined as 475 nM and the concentration at 24 h is 370 nM. Moreover, in series [3] (setting [5]), the “BAL % administered dose at time 0.1 h” value stood at 3.4%, the “BAL % administered dose at time 1.5 h” value is 0.4%, the “BAL % administered dose at time 6 h” value is reported as 0.4% and the “BAL % administered dose at time 24 h” value is reported as 0.3%. For the same compound, in series [3] (setting [6]), the “BAL % administered dose at time 0.1 h” value is given as 0.07%, the “BAL % administered dose at time 1.5 h” value is given as 0.04%, the “BAL % administered dose at time 6 h” value is “BQL” and the “BAL % administered dose at time 24 h” value is reported as “BQL”. The inhibition constant (Ki) on PDGFRβ [2] (setting [4]) was found to be 0.0116 µM.

Turning to `COC(=O)c1cc2c(cc1C)/C(=C(/Nc1ccc(C(=O)N3CCC(C(N)=O)(N4CCCCC4)CC3)cc1)c1ccccc1)C(=O)N2` [Example 47, (Z)-Methyl 3-(((4-(4′-carbamoyl-[1,4′-bipiperidine]-1′-carbonyl)phenyl)amino)(phenyl)methylene)-5-methyl-2-oxoindoline-6-carboxylate], at PDGFRβ [1], the IC50 was 0.00367 µM. For the same compound, the Ki at PDGFRβ [2] (setting [4]) was 0.0989 µM. Also, in the series on MRC5 cells, the “Cell viability at 100 nM (%)” value is listed as 143.1%, the “Cell viability at 300 nM (%)” value came to 123% and the “Cell viability at 1000 nM (%)” value amounted to 58.5%.

As to `COC(=O)c1cc2c(cc1C)/C(=C(/Nc1ccc(C(=O)N(C)C3CCN(CCO)CC3)cc1)c1ccccc1)C(=O)N2` [Example 41, (Z)-Methyl 3-(((4-((1-(2-hydroxyethyl)piperidin-4-yl)(methyl)carbamoyl)phenyl)amino)(phenyl)methylene)-5-methyl-2-oxoindoline-6-carboxylate, 0.2 formate], the half-inhibitory concentration (IC50) on PDGFRβ [1] came to 0.0074 µM. The compound also gave a Ki at PDGFRβ [2] (setting [4]) of 0.0102 µM. For the same compound, in the series on MRC5 cells, the “Cell viability at 100 nM (%)” value amounted to 68.5%, the “Cell viability at 300 nM (%)” value is reported as 56.8% and the “Cell viability at 1000 nM (%)” value is reported as 6.2%.

In the case of `COC(=O)c1cc2c(cc1C)/C(=C(/Nc1ccc(C(=O)NCCN(C)C)cc1)c1ccccc1)C(=O)N2` [Example 2, (Z)-Methyl 3-(((4-((2-(dimethylamino)ethyl)carbamoyl)phenyl)amino)(phenyl)methylene)-5-methyl-2-oxoindoline-6-carboxylate, formate], the IC50 at PDGFRβ [1] was 0.0367 µM. On PDGFRβ [2], this compound showed a Ki of 0.0111 µM. In the series on MRC5 cells, the “Cell viability at 100 nM (%)” value is 94%, the “Cell viability at 300 nM (%)” value is 91% and the “Cell viability at 1000 nM (%)” value is 68.5%.

With `COC(=O)c1cc2c(cc1C)/C(=C(/Nc1ccc(C(=O)NCCN3CCCNC(=O)C3)cc1)c1ccccc1)C(=O)N2` [Example 56, (Z)-Methyl 5-methyl-2-oxo-3-(((4-((2-(3-oxo-1,4-diazepan-1-yl)ethyl)carbamoyl)phenyl)amino)(phenyl)methylene)indoline-6-carboxylate], the IC50 at PDGFRβ [1] was found to be 0.00916 µM. This compound had a Ki at PDGFRβ [2] (setting [4]) of 0.0126 µM. Further, in the series with MRC5 cells, the “Cell viability at 100 nM (%)” value is listed as 100.0%, the “Cell viability at 300 nM (%)” value amounted to 104.9% and the “Cell viability at 1000 nM (%)” value was found to be 102.0%.

Take `COC(=O)c1cc2c(cc1C)/C(=C(/Nc1ccc(C(=O)NCCN3CCNC(=O)C3)c(F)c1)c1ccccc1)C(=O)N2` [Example 55, (Z)-Methyl 3-(((3-fluoro-4-((2-(3-oxopiperazin-1-yl)ethyl)carbamoyl)phenyl)amino)(phenyl)methylene)-5-methyl-2-oxoindoline-6-carboxylate]: the IC50 on PDGFRβ [1] amounted to 0.00913 µM. The same compound displayed a Ki on PDGFRβ [2] (setting [4]) of 0.0251 µM. Also, in the series on MRC5 cells, the “Cell viability at 100 nM (%)” value is given as 79.4%, the “Cell viability at 300 nM (%)” value amounted to 101.5% and the “Cell viability at 1000 nM (%)” value is listed as 101.7%.

On to `COC(=O)c1cc2c(cc1C)/C(=C(/Nc1ccc(C(=O)NCCN3CCC(F)(F)CC3)cc1)c1ccccc1)C(=O)N2` [Example 23, (Z)-Methyl 3-(((4-((2-(4,4-difluoropiperidin-1-yl)ethyl)carbamoyl)phenyl)amino)(phenyl)methylene)-5-methyl-2-oxoindoline-6-carboxylate], for which the IC50 at PDGFRβ [1] was 0.0226 µM. On PDGFRβ [2] (setting [4]), this compound had an inhibitory constant (Ki) of 0.0846 µM. In the series with MRC5 cells, the “Cell viability at 100 nM (%)” value amounted to 90.7%, the “Cell viability at 300 nM (%)” value amounted to 100.5% and the “Cell viability at 1000 nM (%)” value is listed as 62.1%.
